Data taken from US8686044B2, “Amide derivative, pest control agent containing the amide derivative, and use of the amide derivative” (Mitsui Chemicals Agro, Inc., priority 2008, dated 2014).

Columns and labels:
Assay type in all cases: in vivo
Spodoptera litura = assay: Pesticidal test against Spodoptera litura (cabbage leaf dip); details: foliar, 144 h, concentration 1 ppm, 2-stage larvae, examined after 6 days, 25° C., read-out: pesticidal rate
How it was run: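 Cabbage leaf pieces dipped 30 seconds in compound solution at a predetermined concentration and air-dried, then offered to second-stage larvae, five per group in two replicates. Held at 25° C. Living and dead larvae counted after 6 days.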

Plutella xylostella = assay: Pesticidal test against Plutella xylostella (cabbage leaf dip); details: foliar, 144 h, concentration 1 ppm, 2-stage larvae, examined after 6 days, 25° C., read-out: pesticidal rate
How it was run: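 Second-stage larvae (5 per group, two replicates) were released onto air-dried cabbage leaf discs that had been immersed for 30 seconds in compound solution at a set concentration. Mortality was scored after 6 days at 25° C.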

Adoxophyes honmai = assay: Pesticidal test against Adoxophyes honmai (artificial feed dip); details: 144 h, 2-stage larvae, examined after 6 days, 25° C., read-out: pesticidal rate; for pest or weed control at 10 ppm: concentration 10 ppm; for pest or weed control at 1 ppm: concentration 1 ppm
Method: (§1) Pesticidal Test against Adoxophyes honmai A thinly sliced artificial feed was immersed for 30 seconds in a chemical solution in which a test compound had been prepared at a predetermined concentration, and air-dried, and then put into a 7 cm polyethylene cup having a filter paper laid on the bottom thereof, and 2-stage larvae of Adoxophyes honmai were released. They were left to stand in a thermostatic chamber at 25° C., and the numbers of the living pests and the dead pests were examined after 6 days. The test was carried out with five larvae per group in two replicates. Further, the above compound (A) was used as a comparative compound.

Choristoneura magnanima = assay: Pesticidal test against Choristoneura magnanima (artificial feed dip); details: 144 h, 2-stage larvae, examined after 6 days, 25° C., read-out: pesticidal rate; for pest or weed control at 1 ppm: concentration 1 ppm
Method: as §1, with “Choristoneura magnanima” for “Adoxophyes honmai”

Helicoverpa armigera = assay: Pesticidal test against Helicoverpa armigera (cabbage leaf disk dip); details: foliar, 72 h, concentration 1 ppm, 2-stage larvae, examined after 3 days, 25° C., read-out: pesticidal rate
How it was run: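 Cabbage leaf disks were dipped for 30 s in test solution at a set concentration and air-dried. Second-instar larvae were placed one per hole and held at 25 °C, with live and dead counts taken after 3 days. Five larvae per group were tested in two replicates.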

Laodelphax striatellus = assay: Pesticidal test against Laodelphax striatellus (rice seedling spray); details: 144 h, concentration 100 ppm, 3-stage larvae, examined after 6 days, 25° C., read-out: pesticidal rate
How it was run: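 Rice seedlings sprayed with 2.5 ml acetone solution of compound at a predetermined concentration, air-dried, then infested with third-stage Laodelphax striatellus larvae in capped water-containing tubes at 25 °C. Living and dead insects counted after 6 days; ten larvae per group, two replicates.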

Musca domestica = assay: Pesticidal test against Musca domestica (petri dish dry film); details: 24 h, concentration 100 ppm, female adults, examined after 1 day, 25° C., read-out: pesticidal rate
How it was run: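 Female adult houseflies were confined at 25° C in capped 9 cm petri dishes coated with an air-dried film from 1 ml acetone solution of compound (predetermined concentration). Mortality was scored 1 day later, two replicates of five per group.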

O=C(Nc1cccc(C(=O)Nc2c(Br)cc(C(F)(C(F)(F)F)C(F)(F)C(F)(F)F)cc2C(F)(F)F)c1F)c1ccc(Cl)nc1 (stereo not shown) [6-1695]
≥ 70%: pest or weed control at 1 ppm (Spodoptera litura) | pest or weed control at 1 ppm (Plutella xylostella) | pest or weed control at 10 ppm (Adoxophyes honmai) | pest or weed control at 1 ppm (Choristoneura magnanima) | pest or weed control at 1 ppm (Helicoverpa armigera) | pest or weed control at 100 ppm (Laodelphax striatellus) | pest or weed control at 100 ppm (Musca domestica)

N#Cc1cccc(C(=O)Nc2cccc(C(=O)Nc3c(Br)cc(C(F)(C(F)(F)F)C(F)(F)C(F)(F)F)cc3C(F)(F)F)c2)c1 (stereo not shown) [6-366]
≥ 70%: pest or weed control at 1 ppm (Spodoptera litura) | pest or weed control at 1 ppm (Plutella xylostella) | pest or weed control at 1 ppm (Adoxophyes honmai) | pest or weed control at 1 ppm (Choristoneura magnanima) | pest or weed control at 1 ppm (Helicoverpa armigera) | pest or weed control at 100 ppm (Musca domestica)

N#Cc1cccc(C(=O)Nc2cccc(C(=O)Nc3c(I)cc(C(F)(C(F)(F)F)C(F)(F)C(F)(F)F)cc3C(F)(F)F)c2F)c1 (stereo not shown) [6-1828]
≥ 70%: pest or weed control at 1 ppm (Spodoptera litura) | pest or weed control at 1 ppm (Plutella xylostella) | pest or weed control at 1 ppm (Adoxophyes honmai) | pest or weed control at 1 ppm (Choristoneura magnanima) | pest or weed control at 1 ppm (Helicoverpa armigera) | pest or weed control at 100 ppm (Laodelphax striatellus) | pest or weed control at 100 ppm (Musca domestica)

CN(C(=O)c1ccccc1F)c1cccc(C(=O)Nc2c(I)cc(C(F)(C(F)(F)F)C(F)(F)C(F)(F)F)cc2C(F)(F)F)c1F (stereo not shown) [7-1809]
≥ 70%: pest or weed control at 1 ppm (Spodoptera litura) | pest or weed control at 1 ppm (Plutella xylostella) | pest or weed control at 1 ppm (Adoxophyes honmai) | pest or weed control at 1 ppm (Choristoneura magnanima) | pest or weed control at 1 ppm (Helicoverpa armigera) | pest or weed control at 100 ppm (Laodelphax striatellus) | pest or weed control at 100 ppm (Musca domestica)

CN(C(=O)c1ccccc1)c1cccc(C(=O)Nc2c(Br)cc(C(F)(C(F)(F)F)C(F)(F)C(F)(F)F)cc2C(F)(F)F)c1F (stereo not shown) [7-1652]
≥ 70%: pest or weed control at 1 ppm (Spodoptera litura) | pest or weed control at 1 ppm (Plutella xylostella) | pest or weed control at 1 ppm (Adoxophyes honmai) | pest or weed control at 1 ppm (Choristoneura magnanima) | pest or weed control at 1 ppm (Helicoverpa armigera) | pest or weed control at 100 ppm (Laodelphax striatellus) | pest or weed control at 100 ppm (Musca domestica)

O=C(Nc1c(I)cc(C(F)(C(F)(F)F)C(F)(F)C(F)(F)F)cc1I)c1cccc(NC(=O)c2ccccc2F)c1 (stereo not shown) [6-72]
≥ 70%: pest or weed control at 1 ppm (Spodoptera litura) | pest or weed control at 1 ppm (Plutella xylostella) | pest or weed control at 1 ppm (Adoxophyes honmai) | pest or weed control at 1 ppm (Choristoneura magnanima) | pest or weed control at 1 ppm (Helicoverpa armigera) | pest or weed control at 100 ppm (Laodelphax striatellus) | pest or weed control at 100 ppm (Musca domestica)

O=C(Nc1c(I)cc(C(F)(C(F)(F)F)C(F)(F)C(F)(F)F)cc1C(F)(F)F)c1cccc(NC(=O)c2c(F)cccc2F)c1F (stereo not shown) [6-1830]
≥ 70%: pest or weed control at 1 ppm (Spodoptera litura) | pest or weed control at 1 ppm (Plutella xylostella) | pest or weed control at 1 ppm (Adoxophyes honmai) | pest or weed control at 1 ppm (Choristoneura magnanima) | pest or weed control at 1 ppm (Helicoverpa armigera) | pest or weed control at 100 ppm (Laodelphax striatellus) | pest or weed control at 100 ppm (Musca domestica)

O=C(Nc1cccc(C(=O)Nc2c(I)cc(C(F)(C(F)(F)F)C(F)(F)C(F)(F)F)cc2C(F)(F)F)c1F)c1ccccc1F (stereo not shown) [6-1809]
≥ 70%: pest or weed control at 1 ppm (Spodoptera litura) | pest or weed control at 1 ppm (Plutella xylostella) | pest or weed control at 1 ppm (Adoxophyes honmai) | pest or weed control at 1 ppm (Choristoneura magnanima) | pest or weed control at 1 ppm (Helicoverpa armigera) | pest or weed control at 100 ppm (Laodelphax striatellus) | pest or weed control at 100 ppm (Musca domestica)

CN(C(=O)c1cccnc1)c1cccc(C(=O)Nc2c(I)cc(C(F)(C(F)(F)F)C(F)(F)F)cc2C(F)(F)F)c1F [7-1764]
≥ 70%: pest or weed control at 1 ppm (Spodoptera litura) | pest or weed control at 1 ppm (Plutella xylostella) | pest or weed control at 1 ppm (Adoxophyes honmai) | pest or weed control at 1 ppm (Choristoneura magnanima) | pest or weed control at 1 ppm (Helicoverpa armigera) | pest or weed control at 100 ppm (Laodelphax striatellus) | pest or weed control at 100 ppm (Musca domestica)

O=C(Nc1cccc(C(=O)Nc2c(C(F)(F)F)cc(C(F)(C(F)(F)F)C(F)(F)F)cc2C(F)(F)F)c1F)c1ccccc1 [6-2110, 3-benzamide-2-fluoro-N-(4-(perfluoropropan-2-yl)-2,6-bis(trifluoromethyl)phenyl)benzamide]
≥ 70%: pest or weed control at 1 ppm (Spodoptera litura) | pest or weed control at 1 ppm (Plutella xylostella) | pest or weed control at 10 ppm (Adoxophyes honmai) | pest or weed control at 10 ppm (Choristoneura magnanima; concentration 10 ppm) | pest or weed control at 1 ppm (Helicoverpa armigera) | pest or weed control at 100 ppm (Laodelphax striatellus) | pest or weed control at 100 ppm (Musca domestica)

CN(C(=O)c1ccccc1)c1cccc(C(=O)Nc2c(I)cc(C(F)(C(F)(F)F)C(F)(F)C(F)(F)F)cc2C(F)(F)F)c1F (stereo not shown) [7-1808]
≥ 70%: pest or weed control at 1 ppm (Spodoptera litura) | pest or weed control at 1 ppm (Plutella xylostella) | pest or weed control at 1 ppm (Adoxophyes honmai) | pest or weed control at 1 ppm (Choristoneura magnanima) | pest or weed control at 1 ppm (Helicoverpa armigera) | pest or weed control at 100 ppm (Laodelphax striatellus) | pest or weed control at 100 ppm (Musca domestica)

O=C(Nc1cccc(C(=O)Nc2c(I)cc(C(F)(C(F)(F)F)C(F)(F)C(F)(F)F)cc2C(F)(F)F)c1F)c1ccc(Cl)nc1 (stereo not shown) [6-1851]
≥ 70%: pest or weed control at 1 ppm (Spodoptera litura) | pest or weed control at 1 ppm (Plutella xylostella) | pest or weed control at 10 ppm (Adoxophyes honmai) | pest or weed control at 1 ppm (Choristoneura magnanima) | pest or weed control at 1 ppm (Helicoverpa armigera) | pest or weed control at 100 ppm (Laodelphax striatellus) | pest or weed control at 100 ppm (Musca domestica)

CN(C(=O)c1cccc(C#N)c1)c1cccc(C(=O)Nc2c(I)cc(C(F)(C(F)(F)F)C(F)(F)C(F)(F)F)cc2I)c1F (stereo not shown) [7-1358]
≥ 70%: pest or weed control at 1 ppm (Spodoptera litura) | pest or weed control at 1 ppm (Plutella xylostella) | pest or weed control at 1 ppm (Adoxophyes honmai) | pest or weed control at 1 ppm (Choristoneura magnanima) | pest or weed control at 1 ppm (Helicoverpa armigera) | pest or weed control at 100 ppm (Laodelphax striatellus) | pest or weed control at 100 ppm (Musca domestica)

CN(C(=O)c1cccc(F)c1)c1cccc(C(=O)Nc2c(I)cc(C(F)(C(F)(F)F)C(F)(F)C(F)(F)F)cc2C(F)(F)F)c1F (stereo not shown) [7-1810]
≥ 70%: pest or weed control at 1 ppm (Spodoptera litura) | pest or weed control at 1 ppm (Plutella xylostella) | pest or weed control at 1 ppm (Adoxophyes honmai) | pest or weed control at 1 ppm (Choristoneura magnanima) | pest or weed control at 1 ppm (Helicoverpa armigera) | pest or weed control at 100 ppm (Laodelphax striatellus) | pest or weed control at 100 ppm (Musca domestica)

O=C(Nc1cccc(C(=O)Nc2c(I)cc(C(F)(C(F)(F)F)C(F)(F)F)cc2I)c1F)c1ccc(F)cc1 [6-1263]
≥ 70%: pest or weed control at 1 ppm (Spodoptera litura) | pest or weed control at 1 ppm (Plutella xylostella) | pest or weed control at 1 ppm (Adoxophyes honmai) | pest or weed control at 1 ppm (Choristoneura magnanima) | pest or weed control at 1 ppm (Helicoverpa armigera) | pest or weed control at 100 ppm (Laodelphax striatellus)

O=C(Nc1cccc(C(=O)Nc2c(Br)cc(C(F)(C(F)(F)F)C(F)(F)C(F)(F)F)cc2C(F)(F)F)c1F)c1cccc(F)c1 (stereo not shown) [6-1654]
≥ 70%: pest or weed control at 1 ppm (Spodoptera litura) | pest or weed control at 1 ppm (Plutella xylostella) | pest or weed control at 1 ppm (Adoxophyes honmai) | pest or weed control at 1 ppm (Choristoneura magnanima) | pest or weed control at 1 ppm (Helicoverpa armigera) | pest or weed control at 100 ppm (Laodelphax striatellus)

CN(C(=O)c1cccc(C#N)c1)c1cccc(C(=O)Nc2c(Br)cc(C(F)(C(F)(F)F)C(F)(F)C(F)(F)F)cc2C(F)(F)F)c1 (stereo not shown) [7-366]
≥ 70%: pest or weed control at 1 ppm (Spodoptera litura) | pest or weed control at 1 ppm (Plutella xylostella) | pest or weed control at 1 ppm (Adoxophyes honmai) | pest or weed control at 1 ppm (Choristoneura magnanima) | pest or weed control at 1 ppm (Helicoverpa armigera) | pest or weed control at 100 ppm (Musca domestica)
